Literature values in patent US20250032638A1, “Novel Cancer Treatments with TLR7/8 Agonists” (Ascendis Pharma Oncology Division A/S, priority 2021, published 2025).

Conditions: resiquimod administered orally; systemic toxicity at higher doses (Journal of Hepatology 47 (2007) 174-182)

SMILES: CCOCc1nc2c(N)nc3ccccc3c2n1CC(C)(C)O [resiquimod]
- systemic concentration that was well tolerated: about 4 ng/mL
